Experimental data taken from patent US20240131001A1, “PHARMACEUTICAL APPLICATION OF FUSED RING PHENOLIC COMPOUNDS” (RISEN (SUZHOU) PHARMA TECH CO. LTD., priority 2020, published 2024).
Read-outs that look alike come from different tables or passages of the source.

Columns and labels:
PPK = PPK inhibitor screening assay (Table 1, PPK isoform not given); format: biochemical, Pseudomonas aeruginosa; conditions: PPK isoform not stated; for IC50: read-out: IC50 Values for PPK Inhibition
Excerpt: (§1) In order to evaluate the inhibitory effect of the compounds on PPKs, the PPK1, PPK2A, PPK2B and PPK2C were used respectively to test the above compounds using a kit described in an article (Liang Peng et al. & Ning Sun (2020) Discovery and antibacterial study of potential PPK1 inhibitors against uropathogenic E. coli, Journal of Enzyme Inhibition and Medicinal Chemistry, 35:1, 1224-1232).

PPK1 = PPK1 (Pseudomonas aeruginosa, UniProt P0DP44); test: PPK inhibitor screening assay, PPK1; format: biochemical
Excerpt: as §1

PPK2A = PPK2A (Pseudomonas aeruginosa, UniProt Q9I6Z1); test: PPK inhibitor screening assay, PPK2A; format: biochemical
Excerpt: as §1

PPK2B = PPK2B (Pseudomonas aeruginosa, UniProt Q9I154); test: PPK inhibitor screening assay, PPK2B; format: biochemical
Excerpt: as §1

PPK2C = PPK2C (Pseudomonas aeruginosa, UniProt Q9HYF1); test: PPK inhibitor screening assay, PPK2C; format: biochemical
Excerpt: as §1

Pseudomonas aeruginosa [1] = test: Biofilm testing; format: cell-based; conditions: 100 μM compound
Description: FIG. 2: Effect of Compound 4 on Biofilm Formation in Different Pseudomonas Aeruginosa Strains. A: absorbance. The experimental concentration of compound 4 was 100 μM, and “−” or “+” indicates the absence or presence of compound 4; WT: wild-type strain; Δ ppk 1 is the PPK1 knocked out strain; Δ ppk2A, Δppk2B and Δppk2C are the strains with PPK2A, PPK2B, PPK2C knocked out; Δppk1, Δppk2AΔppk2B, Δppk2C are the strains with PPK1, PPK2A, PPK2B and PPK2C knocked out.
Pseudomonas aeruginosa can form biofilm in culture medium. Four groups of LB liquid media were set respectively, among them, group A was inoculated with wild-type Pseudomonas aeruginosa (WT); group B was inoculated with PPK1 knocked out Pseudomonas aeruginosa (A ppkl); group C was inoculated with PPK2A, PPK2B and PPK2C knocked out Pseudomonas aeruginosa (Δ ppk 2A, Δ ppk 2B, Δ ppk 2C); group D was inoculated with PPK1 and PPK2A, PPK2B and PPK2C knocked out Pseudomonas aeruginosa (Δ ppk1, Δ ppk 2Δ A ppk 2B, Δ ppk 2C). After the four groups were infected with Pseudomonas aeruginosa, each group was further divided into two groups, with one group added with DMSO (−) as the control, the other group added with 100 μm compound 4 (+). […] And this biofilm formed in the culture medium of groups A, B, C and D was analyzed using 570 nm visible light.

Pseudomonas aeruginosa [2] = test: Nematode survival test; format: in vivo; conditions: Caenorhabditis elegans infected with wild-type Pseudomonas aeruginosa, six days
Excerpt: FIG. 3: Effect of Compound 4 on the Survival Rate of Nematodes Infected with Pseudomonas Aeruginosa.
Caenorhabditis elegans were divided into five groups A, B, C, D, E, and then subjected to modeling respectively. Caenorhabditis elegans in group A and B were infected with wild-type (WT) Pseudomonas aeruginosa. Group A served as the DMSO control group and group B as compound 4 treatment group. Caenorhabditis elegans in groups C and D were infected with Pseudomonas aeruginosa which was knocked out of all PPK (ΔpolyP, Δppk1Δppk2ΔAppk2BΔ ppk 2C), where group C was DMSO control group and group D served as compound 4 treatment group; and group E was infected with Escherichia coli (0P50E. Coli). After modeling, Caenorhabditis elegans in groups A and C were continuously treated with DMSO, and those in groups B, D and E were continuously treated with compound 4. The environment and conditions were consistent across the five groups. Six days later, the survival rate of nematodes in five groups was calculated.

[3] = system: human embryonic kidney cells (HEK239T); test: HEK cytotoxicity test (Trypan blue staining cell viability assay); format: cell-based; conditions: for relative viability rate: 100 μM, relative to DMSO; for cytotoxicity: up to 100 μM
Description: FIG. 4: Toxicity Assay of Compound 4 and Compound B on Human Embryonic Kidney Cells (HEK Cells): Relative Viability in the Presence of DMSO (Control), Compound B (100 μM), and Compound 4 (100 μM).
The cytotoxicity of the compounds was assessed in cultured human embryonic kidney cells (HEK239T) using the Trypan blue staining cell viability assay. The blank solvent DMSO, compound B, and compound 4 were tested, respectively.

Sequence of PPK2B (Q9I154 whole entry): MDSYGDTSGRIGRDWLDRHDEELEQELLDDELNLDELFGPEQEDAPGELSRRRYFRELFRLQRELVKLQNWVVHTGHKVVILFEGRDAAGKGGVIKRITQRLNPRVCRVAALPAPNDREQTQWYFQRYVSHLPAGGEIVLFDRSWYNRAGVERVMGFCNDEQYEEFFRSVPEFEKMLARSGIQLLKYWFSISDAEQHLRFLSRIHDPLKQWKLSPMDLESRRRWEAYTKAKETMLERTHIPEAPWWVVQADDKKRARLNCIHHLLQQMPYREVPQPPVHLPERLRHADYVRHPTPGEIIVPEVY
Sequence of PPK2A (Q9I6Z1 whole entry): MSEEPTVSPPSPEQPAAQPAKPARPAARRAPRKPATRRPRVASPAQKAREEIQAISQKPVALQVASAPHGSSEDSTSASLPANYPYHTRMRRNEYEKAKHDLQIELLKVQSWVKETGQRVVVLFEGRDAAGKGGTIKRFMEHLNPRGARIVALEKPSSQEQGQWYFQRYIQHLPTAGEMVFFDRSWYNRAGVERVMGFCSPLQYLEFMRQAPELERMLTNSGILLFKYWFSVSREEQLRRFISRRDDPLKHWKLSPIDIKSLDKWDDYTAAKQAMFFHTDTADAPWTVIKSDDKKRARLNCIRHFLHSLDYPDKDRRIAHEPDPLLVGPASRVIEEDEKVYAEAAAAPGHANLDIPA
Sequence of PPK1 (P0DP44 whole entry): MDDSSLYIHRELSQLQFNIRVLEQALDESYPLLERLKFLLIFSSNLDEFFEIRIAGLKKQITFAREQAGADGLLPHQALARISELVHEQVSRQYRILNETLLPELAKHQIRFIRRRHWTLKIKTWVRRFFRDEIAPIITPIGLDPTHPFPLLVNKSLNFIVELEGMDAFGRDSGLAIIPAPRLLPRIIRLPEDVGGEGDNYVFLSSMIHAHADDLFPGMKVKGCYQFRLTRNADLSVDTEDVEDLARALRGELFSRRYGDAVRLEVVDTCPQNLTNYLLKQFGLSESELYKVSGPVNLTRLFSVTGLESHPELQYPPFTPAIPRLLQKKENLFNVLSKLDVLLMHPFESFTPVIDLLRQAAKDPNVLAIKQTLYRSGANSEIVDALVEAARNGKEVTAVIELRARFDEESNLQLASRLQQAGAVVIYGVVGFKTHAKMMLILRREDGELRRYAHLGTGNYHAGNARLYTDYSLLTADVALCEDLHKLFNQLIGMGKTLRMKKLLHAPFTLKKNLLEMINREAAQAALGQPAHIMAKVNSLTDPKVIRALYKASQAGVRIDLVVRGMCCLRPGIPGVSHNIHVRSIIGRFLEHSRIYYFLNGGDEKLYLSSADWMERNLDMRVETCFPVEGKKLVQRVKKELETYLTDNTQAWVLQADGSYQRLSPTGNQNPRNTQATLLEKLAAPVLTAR
Sequence of PPK2C (Q9HYF1 whole entry): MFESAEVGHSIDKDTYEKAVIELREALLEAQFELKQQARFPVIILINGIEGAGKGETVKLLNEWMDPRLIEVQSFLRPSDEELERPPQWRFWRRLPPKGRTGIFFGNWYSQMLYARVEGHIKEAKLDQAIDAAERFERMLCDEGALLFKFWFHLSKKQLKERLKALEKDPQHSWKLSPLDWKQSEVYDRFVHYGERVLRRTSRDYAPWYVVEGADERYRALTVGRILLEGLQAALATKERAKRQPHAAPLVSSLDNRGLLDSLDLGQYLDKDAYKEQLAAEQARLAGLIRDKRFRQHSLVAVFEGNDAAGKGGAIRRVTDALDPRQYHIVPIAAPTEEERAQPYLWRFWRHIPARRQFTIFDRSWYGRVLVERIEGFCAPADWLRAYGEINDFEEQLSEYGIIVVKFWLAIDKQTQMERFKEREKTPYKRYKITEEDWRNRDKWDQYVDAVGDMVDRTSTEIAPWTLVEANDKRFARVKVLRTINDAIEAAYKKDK

Question: How did the IC50 (PPK) turn out when `O=c1oc2c(O)c(O)cc3c(=O)oc4c(O)c(O)cc1c4c23` [Compound 3] was run?
Answer: Its IC50 is 9 µM.

Question: And the IC50 (PPK1; read-out: IC50 PPK1)?
Answer: Its IC50 is 20 µM.

Question: What about the IC50 (PPK2A) of the same compound?
Answer: Its IC50 is 50 µM.

Question: And the IC50 (PPK2B)?
Answer: The IC50 was 48 µM.

Question: `O=S1(=O)OC2(c3ccccc31)c1ccc(O)c(O)c1Oc1c2ccc(O)c1O` [Compound 5] was tested. Which IC50 (PPK) did it give?
Answer: Its IC50 is 26.3 µM.

Question: And the IC50 (PPK1; read-out: IC50 PPK1)?
Answer: Its IC50 is 26 µM.

Question: And the IC50 (PPK2A)?
Answer: The IC50 was 24 µM.

Question: What about the IC50 (PPK2B) of the same compound?
Answer: The IC50 was 31 µM.

Question: And the IC50 (PPK2C)?
Answer: Its IC50 is 273 µM.

Question: `O=c1oc2c(O)c(O)c(O)c3c(=O)oc4c(O)c(O)cc1c4c23` [Compound 2] was tested. Which IC50 (PPK) did it give?
Answer: Its IC50 is 8 µM.

Question: What about the IC50 (PPK1; read-out: IC50 PPK1) of the same compound?
Answer: The IC50 was 20 µM.

Question: And the IC50 (PPK2B)?
Answer: Its IC50 is 59 µM.

Question: How did the “IC50 Values for PPK Inhibition” value (PPK) turn out when `C[C@@H]1O[C@@H](OC[C@H]2O[C@@H](Oc3c(-c4ccc(O)c(O)c4)oc4cc(O)cc(O)c4c3=O)[C@H](O)[C@@H](O)[C@@H]2O)[C@H](O)[C@H](O)[C@H]1O` [Compound H, reference compound] was run?
Answer: Its value is “Inactive”.

Question: With `O=C(O)c1ccc2c(c1)C1(OC2=O)c2ccc(O)cc2Oc2cc(O)ccc21` [E, reference compound] as the compound, how does the IC50 (PPK) read?
Answer: The IC50 was over 200 µM.

Question: For `Cc1c(C2(c3cc(Br)c(O)c(Br)c3C)OS(=O)(=O)c3ccccc32)cc(Br)c(O)c1Br` [Compound F, reference compound], which “IC50 Values for PPK Inhibition” value (PPK) is on record?
Answer: The value was “Inactive”.

Question: What does the source list for `O=C1OC2(c3ccccc31)c1ccc(O)c(O)c1Oc1c2ccc(O)c1O` [Compound 4]?
Answer: IC50 (PPK): 17 µM; IC50 (PPK1; read-out: IC50 PPK1): 17 µM; IC50 (PPK2A): 16 µM; IC50 (PPK2B): 20 µM; IC50 (PPK2C): 165 µM; inhibitory effect on PPK1 and PPK2 seen in biofilm test (Pseudomonas aeruginosa [1]; PPK knocked out strains): not only inhibited PPK1, but also exhibited a good inhibitory effect on PPK2; biofilm formation (570 nm absorbance) (Pseudomonas aeruginosa [1]; wild-type Pseudomonas aeruginosa, 37° C., 24 h): could reduce the formation of biofilm; mortality of nematodes (Pseudomonas aeruginosa [2]): significantly reduced; relative viability rate [3]: ~100%; cytotoxicity [3]: no cytotoxicity

Question: For `O=c1c(O)c(-c2ccc(O)cc2O)oc2cc(O)cc(O)c12` [Compound A, reference compound], which “IC50 Values for PPK Inhibition” value (PPK) is on record?
Answer: The value was “Inactive”.

Question: With `O=c1c(O)c(-c2ccc(O)c(O)c2)oc2cc(O)cc(O)c12` [Compound G, reference compound] as the compound, how does the IC50 (PPK) read?
Answer: The IC50 was 177 µM.

Question: For `O=c1cc(-c2cc(O)c(O)c(O)c2-c2ccsc2)oc2c(O)c(O)ccc12` [Compound 10], which IC50 (PPK) is on record?
Answer: Its IC50 is 36 µM.

Question: For `O=c1oc2c(O)c(O)ccc2c2ccc(O)c(O)c12` [Compound B, reference compound], which IC50 (PPK) is on record?
Answer: Its IC50 is 150 µM.

Question: And the IC50 (PPK1)?
Answer: The IC50 was 120 µM.

Question: And the relative viability rate [3]?
Answer: Its relative viability rate is “approximately 35%”.

Question: And the cytotoxicity [3]?
Answer: The cytotoxicity was “caused a large number of cell death”.

Question: `O=c1cc(-c2cc(O)c(O)c(O)c2Br)oc2c(O)c(O)ccc12` [Compound 1] was tested. Which IC50 (PPK) did it give?
Answer: The IC50 was 6 µM.

Question: For `O=c1oc2cc(O)ccc2c2ccc(O)c(O)c12` [C, reference compound], which IC50 (PPK) is on record?
Answer: The IC50 was over 100 µM.

Question: With `O=S1(=O)OC2(c3ccccc31)c1cc(Br)c(O)c(O)c1Oc1c2cc(Br)c(O)c1O` [Compound 6] as the compound, how does the IC50 (PPK) read?
Answer: The IC50 was 7.59 µM.

Question: With `O=C1OC2(c3ccc(O)cc3Oc3cc(O)ccc32)c2ccccc21` [D, reference compound] as the compound, how does the IC50 (PPK) read?
Answer: The IC50 was over 200 µM.

Question: For `O=c1c(O)c(-c2cc(O)c(O)c(O)c2)oc2cc(O)cc(O)c12` [Compound 7], which IC50 (PPK) is on record?
Answer: The IC50 was 39 µM.
